Test results reported in paper PMC7725003, “Systematically Studying the Optimal Amino Acid Distribution Patterns of the Amphiphilic Structure by Using the Ultrashort Amphiphiles” (Frontiers in Microbiology, 2020).
Where no end group is shown, it is not given here.

Assays:
P. aeruginosa 27853 = format: cell-based, Pseudomonas aeruginosa; details: 27853, 24 h
Procedure: (§1) The antimicrobial activities of the peptides were measured using a method adapted from the National Committee for Clinical Laboratory Standards (NCCLS) with some modifications ([Chou et al., 2016]). The specific procedure for these assays has been previously described. In brief, the bacterial cells were grown to a mid-logarithmic phase and diluted in MHB to an ultimate concentration of 0.5–1 × 10^6 CFU mL^–1. Subsequently, the peptides were consecutively diluted in a 0.2% BSA solution and then added to a bacterial solution in a 96-well plate at identical volumes. After incubation for 24 h at 37°C, the MICs were determined to be the lowest peptide concentration that inhibited 95% of the bacterial growth by monitoring the absorbance at 492 nm using a microplate reader. Subsequently, 50 μL of each incubation mixture was further transferred to agar plates and incubated overnight. The minimum bactericidal concentrations (MBCs) were determined as the lowest peptide concentration that killed greater than 99.9% of the bacterial cells. Every assay was reproduced more than 3 times.

[1] = test system: all of the tested bacterial strains; test: Geometric mean of MICs, all tested bacterial strains; format: cell-based; details: for GM, All: geometric mean of MICs across all tested strains; for TI, All: therapeutic index TI = MHC/GM MIC
From the text: The antimicrobial activity of AMPs is the most decisive index for evaluating the clinical application of antimicrobial drugs. Many antimicrobial agents inhibit bacterial growth rather than kill the bacteria quickly, and long-term infections are pathogens that are not completely killed, which results in bacterial severe drug resistance. […] The geometric mean (GM) values of the MICs/MBCs of the two series across all of the tested bacterial strains are represented in Table 3, which depicts the average bacteriostatic/bactericidal level of a peptide.
as §1

S. epidermidis 12228 = format: cell-based, Staphylococcus epidermidis; details: 12228, 24 h
Procedure: as §1

MRSA 43300 = format: cell-based, methicillin-resistant S. aureus; details: 43300, 24 h
Procedure: as §1

[2] = test system: Listeria monocytogenes CGMCC 1.1075; format: cell-based; details: CGMCC 1.1075, 24 h
Procedure: as §1

S. aureus 29213 [3] = test: Salt sensitivity assay (MIC); format: cell-based, Staphylococcus aureus; details: for MIC, FeCl3: 4 μM FeCl3; for MIC, NH4Cl: 6 μM NH4Cl; for MIC, ZnCl2: 8 μM ZnCl2; for MIC, MgCl2: 1 mM MgCl2; for MIC, CaCl2: 2 mM CaCl2; for MIC, KCl: 4.5 mM KCl; for MIC, NaCl: 150 mM NaCl; for MIC, Control: no added salt, three independent assays
Procedure: as §1
(§2) The salt sensitivities of the peptides were determined. E. coli ATCC 25922 and S. aureus ATCC 29213 were incubated in the presence of various ultimate concentrations of physiological salts (150 mM NaCl, 4.5 mM KCl, 6 μM NH4Cl, 8 μM ZnCl2, 1 mM MgCl2, 2mM CaCl2, and 4 μM FeCl3) according to our previous protocol ([Yang et al., 2019]). These tests were performed under the MICs, and three independent assays were performed.

Gram-negative bacteria = details: for GM, Gram-negative bacteria: geometric mean of MICs (Table 3); for TI, Gram-negative bacteria: therapeutic index TI = MHC/GM MIC
Procedure: (§3) The antimicrobial activity of AMPs is the most decisive index for evaluating the clinical application of antimicrobial drugs.
as §1, with “The minimum bactericidal concentrations (MBCs) were determined as the lowest peptide concentration that killed greater than 99.9% of the bacterial cells.” left out

Gram-positive bacteria = details: for GM, Gram-positive bacteria: geometric mean of MICs (Table 3); for TI, Gram-positive bacteria: therapeutic index TI = MHC/GM MIC
Procedure: as §3
as §1, with “The minimum bactericidal concentrations (MBCs) were determined as the lowest peptide concentration that killed greater than 99.9% of the bacterial cells.” left out

E. faecalis 29212 = format: cell-based, Enterococcus faecalis; details: 29212, 24 h
Procedure: as §1

B. subtilis 63501 = format: cell-based, Bacillus subtilis; details: 63501, 24 h
Procedure: as §1

E. coli ATCC 25922 = test: Salt sensitivity assay (MIC); format: cell-based, Escherichia coli; details: for MIC, FeCl3: 4 μM FeCl3; for MIC, NH4Cl: 6 μM NH4Cl; for MIC, ZnCl2: 8 μM ZnCl2; for MIC, MgCl2: 1 mM MgCl2; for MIC, CaCl2: 2 mM CaCl2; for MIC, KCl: 4.5 mM KCl; for MIC, NaCl: 150 mM NaCl; for MIC, Control: no added salt, three independent assays
Procedure: as §1, §2

S. aureus 25923 = format: cell-based, Staphylococcus aureus; details: 25923, 24 h
Procedure: as §1

S. aureus 29213 [4] = format: cell-based, Staphylococcus aureus; details: 29213, 24 h
Procedure: as §1

S. typhimurium 14028 = format: cell-based, Salmonella typhimurium; details: 14028, 24 h
Procedure: as §1

S. typhimurium 7731 = format: cell-based, Salmonella typhimurium; details: 7731, 24 h
Procedure: as §1

E. coli O78 = format: cell-based, Escherichia coli; details: O78, 24 h
Procedure: as §1

E. coli 25922 = format: cell-based, Escherichia coli; details: 25922, 24 h
Procedure: as §1

E. coli UB1005 = format: cell-based, Escherichia coli; details: UB1005, 24 h
Procedure: as §1

S. pullorum 7913 = format: cell-based, Salmonella pullorum; details: 7913, 24 h
Procedure: as §1

## WRRWRWRWW-NH2 [W3]
P. aeruginosa 27853
  MBC: 8 µM
  MIC: 4 µM
[1]
  GM, All: 3.67 µM
  TI, All: 69.75
S. epidermidis 12228
  MBC: 4 µM
  MIC: 2 µM
MRSA 43300
  MBC: 4 µM
  MIC: 2 µM
[2]
  MBC: 8 µM
  MIC: 4 µM
S. aureus 29213 [3]
  MIC, FeCl3: 8 µM
  MIC, NH4Cl: 8 µM
  MIC, ZnCl2: 4 µM
  MIC, MgCl2: 4 µM
  MIC, CaCl2: 4 µM
  MIC, KCl: 2 µM
  MIC, NaCl: 8 µM
  MIC, Control: 4 µM
Gram-negative bacteria
  GM, Gram-negative bacteria: 4.67 µM
  TI, Gram-negative bacteria: 54.82
Gram-positive bacteria
  GM, Gram-positive bacteria: 2.69 µM
  TI, Gram-positive bacteria: 95.17
E. faecalis 29212
  MBC: 8 µM
  MIC: 4 µM
B. subtilis 63501
  MBC: 2 µM
  MIC: 1 µM
E. coli ATCC 25922
  MIC, FeCl3: 8 µM
  MIC, NH4Cl: 4 µM
  MIC, ZnCl2: 8 µM
  MIC, MgCl2: 8 µM
  MIC, CaCl2: 8 µM
  MIC, KCl: 8 µM
  MIC, NaCl: 16 µM
  MIC, Control: 4 µM
S. aureus 25923
  MBC: 8 µM
  MIC: 4 µM
S. aureus 29213 [4]
  MBC: 8 µM
  MIC: 4 µM
S. typhimurium 14028
  MBC: 8 µM
  MIC: 4 µM
S. typhimurium 7731
  MBC: 16 µM
  MIC: 8 µM
E. coli O78
  MBC: 8 µM
  MIC: 4 µM
E. coli 25922
  MBC: 8 µM
  MIC: 4 µM
E. coli UB1005
  MBC: 8 µM
  MIC: 4 µM
S. pullorum 7913
  MBC: 4 µM
  MIC: 2 µM

## WRRWRWWRW-NH2 [W12]
P. aeruginosa 27853
  MBC: 8 µM
  MIC: 4 µM
[1]
  GM, All: 3.08 µM
  TI, All: 41.56
S. epidermidis 12228
  MBC: 4 µM
  MIC: 2 µM
MRSA 43300
  MBC: 4 µM
  MIC: 2 µM
[2]
  MBC: 4 µM
  MIC: 2 µM
S. aureus 29213 [3]
  MIC, FeCl3: 2 µM
  MIC, NH4Cl: 2 µM
  MIC, ZnCl2: 2 µM
  MIC, MgCl2: 2 µM
  MIC, CaCl2: 2 µM
  MIC, KCl: 2 µM
  MIC, NaCl: 4 µM
  MIC, Control: 2 µM
Gram-negative bacteria
  GM, Gram-negative bacteria: 4.32 µM
  TI, Gram-negative bacteria: 29.63
Gram-positive bacteria
  GM, Gram-positive bacteria: 2.00 µM
  TI, Gram-positive bacteria: 64.00
E. faecalis 29212
  MBC: 8 µM
  MIC: 4 µM
B. subtilis 63501
  MBC: 2 µM
  MIC: 1 µM
E. coli ATCC 25922
  MIC, FeCl3: 4 µM
  MIC, NH4Cl: 4 µM
  MIC, ZnCl2: 2 µM
  MIC, MgCl2: 4 µM
  MIC, CaCl2: 16 µM
  MIC, KCl: 4 µM
  MIC, NaCl: 32 µM
  MIC, Control: 4 µM
S. aureus 25923
  MBC: 4 µM
  MIC: 2 µM
S. aureus 29213 [4]
  MBC: 4 µM
  MIC: 2 µM
S. typhimurium 14028
  MBC: 8 µM
  MIC: 4 µM
S. typhimurium 7731
  MBC: 16 µM
  MIC: 8 µM
E. coli O78
  MBC: 8 µM
  MIC: 4 µM
E. coli 25922
  MBC: 8 µM
  MIC: 4 µM
E. coli UB1005
  MBC: 8 µM
  MIC: 4 µM
S. pullorum 7913
  MBC: 8 µM
  MIC: 4 µM
